The record followed here is PubChem BioAssay (NCI).

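Briefly, cells in 96-well plates were exposed to five compound concentrations for 48 h, and endpoints were estimated by linear interpolation. Definition used: TGI = concentration required for complete inhibition of growth.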

Among the test systems are DLD-1 colon; DMS 114 small cell lung; DMS 273 small cell lung; HOP-18 NSCLC; K-562 leukemia; KM20L2 colon; M19-MEL melanoma; MCF7 breast; OVCAR-4 ovarian; P388 leukemia; P388/ADR leukemia; SF-539 CNS; SK-MEL-2 melanoma; SN12K1 renal; SNB-78 CNS; XF 498 CNS; LXFL 529 NSCLC; RXF-631 renal.
What all share (assay): NCI tumour cell line growth inhibition, 48 h

Regarding `COc1cccc2c1C(=O)c1c(O)c3c(c(O)c1C2=O)C[C@@](O)(/C(C)=N/NC(=O)c1ccccc1)C[C@@H]3OC1CC(N)C(O)C(C)O1` (some centres not stated), the TGI was determined as 17.6 µM in the test with DLD-1 colon; 1.11 µM in the test on DMS 114 small cell lung; 1.65 µM in the test with DMS 273 small cell lung; 6.61 µM with HOP-18 NSCLC; 4.25 µM with K-562 leukemia; 9.23 µM in the test on KM20L2 colon. Moreover, the TGI was determined as 2.99 µM in the test on M19-MEL melanoma; 2.93 µM in the test with MCF7 breast; 7.74 µM in the test with OVCAR-4 ovarian; 1.61 µM in the test with P388 leukemia; 35.6 µM with P388/ADR leukemia; 1.58 µM in the test with SF-539 CNS. Moreover, the TGI in the test on SK-MEL-2 melanoma was 1.41 µM; with SN12K1 renal it was 1.88 µM; in the test with SNB-78 CNS it was 6.1 µM; with XF 498 CNS it was 0.242 µM.
For the compound `Nc1nc(N)c2nc(-c3ccco3)cnc2n1`, the TGI with DLD-1 colon, in the test on DMS 114 small cell lung, in the test on HOP-18 NSCLC, in the test on K-562 leukemia, in the test with KM20L2 colon and in the test on LXFL 529 NSCLC was > 100 µM each time. In addition, the TGI with M19-MEL melanoma, in the test with RXF-631 renal, in the test on SF-539 CNS, with SNB-78 CNS and in the test on XF 498 CNS was > 100 µM throughout.
With `CC(=O)O[C@H]1C(=O)[C@@]2(C)[C@H]([C@H](OC(=O)c3ccccc3)[C@]3(O)C[C@H](OC(=O)[C@H](O)[C@@H](NC(=O)CC(C)C)c4ccccc4)C(C)=C1C3(C)C)[C@]1(OC(C)=O)CO[C@@H]1C[C@@H]2O`, the TGI with K-562 leukemia is > 10 µM; with MCF7 breast it was > 10 µM; in the test with OVCAR-4 ovarian, > 10 µM; in the test with SF-539 CNS, 0.196 µM; with SK-MEL-2 melanoma, > 10 µM.
Take `COc1ccc(C(C#N)NCCCCCCNC(C#N)c2ccc(OC)cc2)cc1` (configuration not stated): the TGI in the test on K-562 leukemia, in the test on MCF7 breast, in the test on OVCAR-4 ovarian, with SF-539 CNS and in the test on SK-MEL-2 melanoma was > 100 µM in each case.
Regarding `Cc1ccc([N+](=O)[O-])cc1S(=O)(=O)Nc1ccc(C2=NNC(c3cccs3)C2)cc1` (configuration not stated), the TGI in the test with K-562 leukemia was > 100 µM; in the test with MCF7 breast, 47.8 µM; in the test on OVCAR-4 ovarian, > 100 µM; in the test with SF-539 CNS, > 100 µM; in the test on SK-MEL-2 melanoma, > 100 µM.
Regarding `O=C(N/N=C\c1ccc([N+](=O)[O-])cc1)Nc1cccc2ccccc12`, the TGI is > 100 µM with K-562 leukemia; > 80.9 µM in the test on MCF7 breast; > 100 µM in the test on OVCAR-4 ovarian; 33 µM in the test with SF-539 CNS; 23.9 µM in the test on SK-MEL-2 melanoma.
For the compound `Nn1c(SCC(=O)NCc2ccccc2)nc2ccccc2c1=O`, the TGI in the test with K-562 leukemia, in the test with MCF7 breast, in the test with OVCAR-4 ovarian, with SF-539 CNS and with SK-MEL-2 melanoma was > 100 µM in each case.
Turning to `O=c1[nH]c2ccc(CC(=S)N3CCN(c4ccccc4)CC3)cc2o1`, the TGI in the test on K-562 leukemia, in the test with MCF7 breast, in the test with OVCAR-4 ovarian, in the test with SF-539 CNS and in the test with SK-MEL-2 melanoma was > 100 µM in each case.
Take `COc1ccc(Nc2nc(N)c(C(=O)c3ccccc3)s2)cc1`: the TGI in the test on K-562 leukemia was > 100 µM; with MCF7 breast, > 100 µM; in the test on OVCAR-4 ovarian it was > 60.8 µM; in the test on SF-539 CNS it was 0.0327 µM; in the test with SK-MEL-2 melanoma it was 32.2 µM.
Turning to `Clc1ccc2c(NCCNc3ccnc4cc(Cl)ccc34)ccnc2c1`, the TGI in the test with K-562 leukemia came out at 28.2 µM; with MCF7 breast, 36 µM; in the test with OVCAR-4 ovarian, 35.5 µM; with SF-539 CNS, 25.3 µM; in the test with SK-MEL-2 melanoma, 34.4 µM.
The like results for `CC(=O)N1N=C(N)CC1=O` were, in that order, > 100 µM, > 100 µM, > 100 µM, > 100 µM and > 100 µM.
